Laboratory results as given in patent US20260028354A1, “TETRAHYDRONAPHTHALENE DERIVATIVES AS ESTROGEN RECEPTOR DEGRADERS” (REGENT OF THE UNIVERSITY OF MICHIGAN, priority 2022, published 2026).
Like-named read-outs stand apart in the source and are kept apart here.

Columns and labels:
MCF-7 cells = assay: CellTiter-Glo (CTG) cell proliferation assay in MCF-7 cells; assay type: cell-based; details: Homo sapiens, MCF7, 144 h, MCF-7 cell proliferation, Day 6
Text: CellTiter-Glo® (CTG) Assays in MCF-7 and T47D Cell Lines.
In vitro Assay: MCF-7 and T47D CTG assay

ER in MCF-7 cells = ER in MCF-7 cells (Homo sapiens (Human), UniProt P03372); assay: In-cell Western (ICW) ER degradation assay in MCF-7 cells; assay type: cell-based; details: for DC50: MCF-7, ER degradation, read-out: MCF7 DC50
[1] = MCF7, read-out: MCF7 Dmax, MCF-7, maximal ER degradation, 16 hrs treatment
[2] = MCF7, MCF-7, maximal ER degradation, 16 hrs treatment, read-out: MCF7 Dmax

Sequence of ER in MCF-7 cells (P03372 whole entry): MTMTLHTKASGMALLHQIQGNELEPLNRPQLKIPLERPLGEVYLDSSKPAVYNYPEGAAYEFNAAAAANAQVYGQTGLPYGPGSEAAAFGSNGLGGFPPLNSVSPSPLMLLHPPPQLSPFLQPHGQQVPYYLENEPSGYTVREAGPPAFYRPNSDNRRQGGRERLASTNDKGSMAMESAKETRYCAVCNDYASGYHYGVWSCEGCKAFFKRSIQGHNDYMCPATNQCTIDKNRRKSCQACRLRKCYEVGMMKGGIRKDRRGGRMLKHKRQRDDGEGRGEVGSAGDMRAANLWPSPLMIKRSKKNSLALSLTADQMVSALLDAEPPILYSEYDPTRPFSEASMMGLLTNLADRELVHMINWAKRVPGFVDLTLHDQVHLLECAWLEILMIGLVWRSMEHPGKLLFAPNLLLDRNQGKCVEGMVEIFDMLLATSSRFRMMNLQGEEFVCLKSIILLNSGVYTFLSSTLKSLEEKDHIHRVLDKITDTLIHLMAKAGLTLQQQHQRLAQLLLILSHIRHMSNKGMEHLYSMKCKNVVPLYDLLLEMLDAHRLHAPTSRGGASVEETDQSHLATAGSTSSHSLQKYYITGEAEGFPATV

Structure (SMILES) | IC50 (MCF-7 cells) [nM] | Dmax (ER in MCF-7 cells; [1]) [%] | DC50 (ER in MCF-7 cells; 16 hrs treatment) [nM] | Dmax (ER in MCF-7 cells; [2]) [%]
O=C1CC[C@H](N2Cc3c(ccc4c3OCC43CCN(CC4CCC5(CC4)CN(c4ccc([C@@H]6c7ccc(O)cc7CC[C@@H]6c6ccccc6)cc4)C5)CC3)C2=O)C(=O)N1 [Compound A177, (S)-3-(1′-((2-(4-((1R,2S)-6-hydroxy-2-phenyl-1,2,3,4-tetra-hydronaphthalen-1-yl)phenyl)-2-azaspiro[3.5]nonan-7-yl)-methyl)-6-oxo-6,8-dihydro-2H,7H-spiro[furo[2,3-e]iso-indole-3,4′-piperidin]-7-yl)-piperidine-2,6-dione] | > 100 | > 75 | < 1 | –
O=C1CC[C@H](N2Cc3cc4c(cc3C2=O)OCC42CCN(CC3CCC4(CC3)CN(c3ccc([C@@H]5c6ccc(O)cc6CC[C@@H]5c5ccccc5)cc3)C4)CC2)C(=O)N1 [Compound A178, (S)-3-(1′-((2-(4-((1R,2S)-6-hydroxy-2-phenyl-1,2,3,4-tetra-hydronaphthalen-1-yl)phenyl)-2-azaspiro[3.5]nonan-7-yl)-methyl)-7-oxo-5,7-dihydro-2H, 6H-spiro[furo[2,3-f]isoindole-3,4′-piperidin]-6-yl)piperidine-2,6-dione] | > 100 | > 75 | < 1 | –
COc1cc(N2CC3(CCC(CN4CCC5(CC4)COc4nc(C(=O)N[C@H]6CCC(=O)NC6=O)ccc45)CC3)C2)c(F)cc1[C@@H]1c2ccc(O)cc2CC[C@@H]1c1ccccc1 [Compound A179, N-((S)-2,6-dioxopiperidin-3-yl)-1′-((2-(2-fluoro-4-((1S,2S)-6-hydroxy-2-phenyl-1,2,3,4-tetrahydronaphthalen-1-yl)-5-methoxyphenyl)-2-azaspiro [3.5]nonan-7-yl)methyl)-2H-spiro[furo[2,3-b]pyridine-3,4′-piperidine]-6-carboxamide] | > 100 | > 75 | < 1 | –
COc1cc(N2CCC(CCN3CCN4c5ccc6c(c5OC[C@H]4C3)CN([C@H]3CCC(=O)NC3=O)C6=O)CC2)c(F)cc1[C@@H]1c2ccc(O)cc2CC[C@@H]1c1ccccc1 [Compound A180, (S)-3-((R)-7-(2-(1-(2-fluoro-4-((1S,2S)-6-hydroxy-2-phenyl-1,2,3,4-tetrahydronaphthalen-1-yl)-5-methoxyphenyl)piper-idin-4-yl)ethyl)-1-oxo-1,3,5,5a, 6,7,8,9-octahydro-2H-pyrazino [1′,2′:4,5][1,4]oxazino[2,3-e]isoindol-2-yl)piperidine-2,6-dione] | > 100 | – | < 1 | > 75
O=C1CC[C@H](N2Cc3c(ccc4c3OCC43CCN(CC4CC5(CCN(c6ccc([C@@H]7c8ccc(O)cc8CC[C@@H]7c7ccccc7)cc6)CC5)C4)CC3)C2=O)C(=O)N1 [Compound A181, (S)-3-(1′-((7-(4-((1R,2S)-6-hydroxy-2-phenyl-1,2,3,4-tetra-hydronaphthalen-1-yl)phenyl)-7-azaspiro[3.5]nonan-2-yl)-methyl)-6-oxo-6,8-dihydro-2H, 7H-spiro[furo[2,3-e]isoindole-3,4′-piperidin]-7-yl)piperidine-2,6-dione] | > 100 | > 75 | < 1 | –
COc1cc(N2CC3(CC(CN4CCC5(CC4)COc4c5ccc5c4CN([C@H]4CCC(=O)NC4=O)C5=O)C3)C2)c(F)cc1[C@@H]1c2ccc(O)cc2CC[C@@H]1c1ccccc1 [Compound A184, (S)-3-(1′-((2-(2-fluoro-4-((1S, 2S)-6-hydroxy-2-phenyl-1,2,3,4-tetrahydronaphthalen-1-yl)-5-methoxyphenyl)-2-aza-spiro[3.3]heptan-6-yl)methyl)-6-oxo-6,8-dihydro-2H,7H-spiro[furo[2,3-e]isoindole-3,4′-piperidin]-7-yl)piperidine-2,6-dione] | > 100 | 50 to 75 | – | –
COc1cc(N2CC3(CC(CN4CCN5c6ccc7c(c6OC[C@H]5C4)CN([C@H]4CCC(=O)NC4=O)C7=O)C3)C2)c(F)cc1[C@@H]1c2ccc(O)cc2CC[C@@H]1c1ccccc1 [Compound A185, (S)-3-((R)-7-((2-(2-fluoro-4-((1S,2S)-6-hydroxy-2-phenyl-1,2,3,4-tetrahydronaphthalen-1-yl)-5-methoxyphenyl)-2-aza-spiro[3.3]heptan-6-yl)methyl)-1-oxo-1,3,5,5a,6,7,8,9-octa-hydro-2H-pyrazino[1′,2′:4,5] [1,4]oxazino[2,3-e]isoindol-2-yl)piperidine-2,6-dione] | > 100 | – | < 1 | > 75
COc1cc(N2CCC(CCN3CCC4(CC3)COc3c4ccc4c3CN([C@H]3CCC(=O)NC3=O)C4=O)CC2)c(F)cc1[C@@H]1c2ccc(O)cc2CC[C@@H]1c1ccccc1 [Compound A187, (S)-3-(1′-(2-(1-(2-fluoro-4-((1S,2S)-6-hydroxy-2-phenyl-1,2,3,4-tetrahydronaphthalen-1-yl)-5-methoxyphenyl)piperidin-4-yl)ethyl)-6-oxo-6,8-dihydro-2H,7H-spiro[furo[2,3-e]iso-indole-3,4′-piperidin]-7-yl)-piperidine-2,6-dione] | 10 to 100 | > 75 | < 1 | –
COc1cc(N2CCC(CCN3CCN4c5cc6c(cc5OC[C@@H]4C3)C(=O)N([C@H]3CCC(=O)NC3=O)C6)CC2)c(F)cc1[C@@H]1c2ccc(O)cc2CC[C@@H]1c1ccccc1 [Compound A188, (S)-3-((S)-3-(2-(1-(2-fluoro-4-((1S,2S)-6-hydroxy-2-phenyl-1,2,3,4-tetrahydronaphthalen-1-yl)-5-methoxyphenyl)piper-idin-4-yl)ethyl)-8-oxo-1,2,3,4,4a,5,8,10-octahydro-9H-pyr-azino[1′,2′:4,5][1,4]oxazino [2,3-f]isoindol-9-yl)piperidine-2,6-dione] | 10 to 100 | – | < 1 | > 75
COc1cc(N2CCC(CCN3CCC4(CC3)COc3cc5c(cc34)CN([C@H]3CCC(=O)NC3=O)C5=O)CC2)c(F)cc1[C@@H]1c2ccc(O)cc2CC[C@@H]1c1ccccc1 [Compound A189, (S)-3-(1′-(2-(1-(2-fluoro-4-((1S,2S)-6-hydroxy-2-phenyl-1,2,3,4-tetrahydronaphthalen-1-yl)-5-methoxyphenyl)piper-idin-4-yl)ethyl)-7-oxo-5,7-dihydro-2H,6H-spiro[furo[2,3-f]isoindole-3,4′-piperidin]-6-yl)piperidine-2,6-dione] | 10 to 100 | > 75 | < 1 | –
COc1c([C@@H]2c3ccc(O)cc3CC[C@@H]2c2ccccc2)ccc(N2CCC(CN3CCC4(CC3)COc3cc5c(cc34)CN([C@H]3CCC(=O)NC3=O)C5=O)CC2)c1F [Compound A191, (S)-3-(1′-((1-(2-fluoro-4-((1S, 2S)-6-hydroxy-2-phenyl-1,2,3,4-tetrahydronaphthalen-1-yl)-3-methoxyphenyl)piper-idin-4-yl)methyl)-7-oxo-5,7-dihydro-2H,6H-spiro[furo[2,3-f]isoindole-3,4′-piperidin]-6-yl)piperidine-2,6-dione] | 10 to 100 | 50 to 75 | < 1 | –
COC1(CCN2CCN3c4ccc5c(c4OC[C@H]3C2)CN([C@H]2CCC(=O)NC2=O)C5=O)CCN(c2ccc([C@@H]3c4ccc(O)cc4CC[C@@H]3c3ccccc3)cc2)CC1 [Compound A192, (S)-3-((R)-7-(2-(1-(4-((1R,2S)-6-hydroxy-2-phenyl-1,2,3,4-tetrahydronaphthalen-1-yl)-phenyl)-4-methoxypiperidin-4-yl)cthyl)-1-oxo-1,3,5,5a,6,7,8,9-octahydro-2H-pyrazino[1′,2′: 4,5][1,4]oxazino[2,3-e]isoindol-2-yl)piperidine-2,6-dione] | > 100 | – | < 1 | > 75
COC1(CCN2CCC3(CC2)COc2c3ccc3c2CN([C@H]2CCC(=O)NC2=O)C3=O)CCN(c2ccc([C@@H]3c4ccc(O)cc4CC[C@@H]3c3ccccc3)cc2)CC1 [Compound A193, (S)-3-(1′-(2-(1-(4-((1R,2S)-6-hydroxy-2-phenyl-1,2,3,4-tetra-hydronaphthalen-1-yl)phenyl)-4-methoxypiperidin-4-yl)-ethyl)-6-oxo-6,8-dihydro-2H, 7H-spiro[furo[2,3-e]isoindole-3,4′-piperidin]-7-yl)piperidine-2,6-dione] | 10 to 100 | > 75 | < 1 | –
O=C1CC[C@H](N2Cc3cc4c(cc3C2=O)OC[C@@H]2CN(CC3CC5(CCN(c6cnc(C7c8ccc(O)cc8CCC7c7ccccc7)cn6)CC5)C3)CCN42)C(=O)N1 (stereo partly drawn) [Compound A194, (3S)-3-((4aS)-3-((7-(5-(6-hydroxy-2-phenyl-1,2,3,4-tetra-hydronaphthalen-1-yl)pyrazin-2-yl)-7-azaspiro[3.5]nonan-2-yl)methyl)-8-oxo-1,2,3,4,4a,5,8,10-octahydro-9H-pyrazino [1′,2′:4,5][1,4]oxazino[2,3-f]isoindol-9-yl)piperidine-2,6-dione] | > 100 | – | 1 to 10 | > 75
O=C1CC[C@H](N2Cc3c(ccc4c3OC[C@H]3CN(CC5CC6(CCN(c7cnc(C8c9ccc(O)cc9CCC8c8ccccc8)cn7)CC6)C5)CCN43)C2=O)C(=O)N1 (stereo partly drawn) [Compound A195, (3S)-3-((5aR)-7-((7-(5-(6-hydroxy-2-phenyl-1,2,3,4-tetra-hydronaphthalen-1-yl)pyrazin-2-yl)-7-azaspiro[3.5]nonan-2-yl)methyl)-1-oxo-1,3,5,5a,6,7,8,9-octahydro-2H-pyrazino [1′,2′:4,5][1,4]oxazino[2,3-e]isoindol-2-yl)piperidine-2,6-dione] | > 100 | – | < 1 | > 75
COc1c([C@@H]2c3ccc(O)cc3CC[C@@H]2c2ccccc2)ccc(N2CCC3(CC2)CC(CN2CCN4c5ccc6c(c5OC[C@H]4C2)CN([C@H]2CCC(=O)NC2=O)C6=O)C3)c1F [Compound A196, (S)-3-((R)-7-((7-(2-fluoro-4-((1S,2S)-6-hydroxy-2-phenyl-1,2,3,4-tetrahydronaphthalen-1-yl)-3-methoxyphenyl)-7-aza-spiro[3.5]nonan-2-yl)methyl)-1-oxo-1,3,5,5a,6,7,8,9-octa-hydro-2H-pyrazino[1′,2′:4,5] [1,4]oxazino[2,3-e]isoindol-2-yl)piperidine-2,6-dione] | < 10 | – | < 1 | > 75
